{"source": "patent US5792742A", "about": "“Fibrin-binding peptide fragments of fibronectin” (New York University, priority 1994, dated 1998)", "key": {"[1]": {"conditions": "previously shown (Baron et al. 1990); cited from earlier work"}, "fibrin [2]": {"test_system": "fibrin", "test": "Fibrin-SEPHAROSE affinity chromatography (binding and elution)", "design": "species or system bovine", "procedure": "Bovine fibrinogen was cross-linked to CNBr-activated SEPHAROSE™ (5 mg/ml beads) according to the manufacturer's instructions. Coupled fibrinogen was subsequently converted to fibrin by incubation with human thrombin to a final concentration of 5 NIH units/ml and 100 K.I. (kallikrein inhibitory) units/ml of aprotinin (in 0.05M Tris-HCI buffer, pH 7.6, containing 0.1M NaCl and 0.01M EDTA) for three hours, at room temperature (Gold, et al. (1983) Biochemistry 22, 4113-4119).\n1.0M NaCl in 0.05M tris buffer, pH 8.0.\nThe fibrin-binding activity of the proteolytically derived 25.9 kDa fragment of Fn was determined by its ability to bind to a fibrin affinity matrix. […] FBB was used to equilibrate and wash the column. Following warming of the column to 22° C., the column was washed with FBB until absorbance at 280 nm (A280) was less than 0.01, and bound protein eluted with 0.05M Tris-HCl, 0.5M NaCl, 6M urea buffer, pH 7.6.\nThe module (500 μg/1.0 ml) was incubated for 4 hours (while rotating) at 4° C. in the presence of 1.0 ml fibrin-SEPHAROSE™ (5 mg fibrin/ml SEPHAROSE™ beads) equilibrated in […] Tris-HCl, 0.1M NaCl buffer, pH 7.6.\nThe 11 KDa peptide (50 μg/0.206 ml) was radiolabeled using the IODO-BEAD method (Pierce Chemical). The peptide was added to one IODO-BEAD in the presence of 100 μCi ^125 I (17.4 Ci/mg, New England Nuclear) and incubated on ice for 10 minutes. The bead was removed and the free ^125 I removed by chromatography through a PD10 column containing SEPHADEX™ G-25 (Pharmacia). […] The radioiodinated 11 kDa fibrin-binding peptide (500 μg/1.5 ml) was combined with 1 ml of fibrin-SEPHAROSE™ (5 mg fibrin/ml beads) equilibrated with 50 mM Tris-HCl, 0.1M NaCl buffer, pH 7.6, and rotated for 4 hours, at 4° C. The mixture was poured onto a disposable column (0.6 cm×8.0) and the unbound protein washed through. The column was equilibrated to room temperature and washed with the equilibration buffer."}, "fibrin [3]": {"test_system": "fibrin", "experimental": "Since the anti-Fn detection system described for the ELISA above could not be used in Fn competition assays employing the intact Fn molecule or the 25.8 kDa proteolytic fragment, purified Fn was biotinylated using water soluble NHS-LC-Biotin (Pierce Chemm. Co.; according to the manufacturer's instructions) and binding to fibrin detected by alkaline phosphatase conjugated streptavidin (diluted 1/500 in FBBT/BSA) for 1 hour at 22° C., followed by the addition of p-nitrophenyl phosphate, as described above. To ensure that the biotinylation of the Fn had not affected its ability to bind to fibrin, fibrin-binding activity was tested by incubating increasing concentrations of biotinylated Fn (10-300 ng/0.1 ml FBB) with the fibrin-coated wells (200 ng) and detected (see FIG. 28A) using alkaline phosphatase-conjugated streptavidin and the reaction developed as described for Direct Elisa.\nTo compare the relative fibrin-binding affinities of the ^4 F1.^5 F1 recombinant module pair and the 25.9 kDa proteolytic fragment (^1 F1-^5 F1) with that of the native Fn molecule, these purified proteins were competed with biotinylated plasma Fn for binding to fibrin coated wells and the extent of inhibition of binding assessed by incubation with alkaline phosphatase-conjugated streptavidin. […] Biotinylated Fn (100 ng/0.1 ml FBB: 2.3 nM) was combined with increasing concentrations (0-10 μM) of either unlabeled Fn, the 25.9 kDa proteolytic fragment, or the separate ^4 F1.^5 F1, and ^10 F1 recombinant modules and incubated with the fibrin-coated microtiter wells for 1 hour at 22° C. […] Bound biotinylated Fn was quantitated as described above."}, "[4]": {"test": "Heparin affinity chromatography", "format": "binding", "conditions": "NaCl gradient in 0.05M tris buffer, pH 8.0", "description": "Upon warming the column to room temperature, a 25.9 kDa fragment was eluted with FBB (Peak a, FIG. 3). […] 1.0M NaCl in 0.05M tris buffer, pH 8.0. The yield of the 11 kDa fragment from the intact molecule was approximately 5% (w/w). This is the same as the theoretical yield. The extinction coefficient has been determined to be approximately 4.5, based on a comparison between A280 and protein concentration determination by Coomassie Protein Assay (Pierce Chemical Co.)."}}, "data": [{"substance": "25.9 kDa fragment: 25.9 kDa N-terminal proteolytic fibrin-binding fragment of fibronectin (^1 F1-^5 F1), residues 17-246 of SEQ ID NO:1", "values": [{"measurement": "heparin-binding activity, affinity", "setting": "[1]", "result": "intermediate"}, {"measurement": "% of protein applied eluted on warming the column to 22° C. (room temperature)", "setting": "fibrin [2]; FBB buffer", "result": "approximately 8%"}, {"measurement": "% of protein applied eluted with 0.5M NaCl, 6.0M urea buffer", "setting": "fibrin [2]; after warming to 22° C.", "result": "approximately 17%"}, {"measurement": "% of protein applied retained by fibrin-SEPHAROSE", "setting": "fibrin [2]; binding at 4° C., 500 μg applied", "result": 25, "unit": "%"}, {"measurement": "% of protein applied retained by fibrin-Sepharose with increasing amounts applied", "setting": "fibrin [2]; increasing amounts applied to a fixed volume of fibrin-Sepharose", "result": 25, "unit": "%"}, {"measurement": "relative affinity for fibrin (from elution conditions)", "setting": "fibrin [2]; temperature change vs denaturing conditions (6M urea or 50% ethylene glycol) for elution", "result": "lower affinity"}, {"measurement": "fold higher concentration over intact Fn needed for 50% inhibition", "setting": "fibrin [3]", "result": 7.5, "unit": "fold"}, {"measurement": "maximal inhibition of biotinylated Fn binding to fibrin", "setting": "fibrin [3]; 10 μM of protein (5,000 molar excess)", "result": 75, "unit": "%"}, {"measurement": "IC50", "setting": "fibrin [3]; read-out: IC50, 50% inhibition of binding of biotinylated Fn to fibrin, biotinylated Fn 2.3 nM, 200 ng fibrin, 1 hour 22° C.", "result": 150, "unit": "nM"}, {"measurement": "Ki", "setting": "fibrin [3]; read-out: KI estimated from IC50 (Cheng and Prussoff)", "result": 145, "unit": "nM"}, {"measurement": "NaCl concentration at elution from heparin affinity chromatography", "setting": "[4]", "result": 0.25, "unit": "M"}]}]}
